This note sets out measurements from PubChem BioAssay AID328 (DTP/NCI, 2004).

Several values for one entry are separate records, joined by “and”; a condition that tells them apart may be missing. Identical values can stand only once. Toxic doses and inconclusive results are not listed.

In this experiment the test system is BDF1 mice, P388 leukemia ip, median survival T/C. The experiment in a line: NCI In Vivo Anticancer Drug Screen. Data for tumor model P388 Leukemia (intraperitoneal) in B6D2F1 (BDF1) mice. The following applies: endpoint: median survival time, higher = longer survival. In short, it runs like this:
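Each value expresses how treatment altered survival: treated-mouse outcome over vehicle-mouse outcome, both groups bearing the transplanted tumour.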

[1] abbreviates: dose: 25.0 mg/kg/injection, schedule: Q01DX009 (ip), vehicle: saline with Tween-80.
Setting [2] is: dose: 50.0 mg/kg/injection, schedule: Q01DX009 (ip), vehicle: saline with Tween-80.
Setting [3] is: dose: 100.0 mg/kg/injection, schedule: Q01DX009 (ip), vehicle: saline with Tween-80.
[4] abbreviates: dose: 100.0 mg/kg/injection, schedule: Q04DX003 (ip), vehicle: saline with Tween-80.
[5] abbreviates: dose: 200.0 mg/kg/injection, schedule: Q04DX003 (ip), vehicle: saline with Tween-80.
Setting [6] is: dose: 400.0 mg/kg/injection, schedule: Q04DX003 (ip), vehicle: saline with Tween-80.

For the compound `COc1ccc(CN(C)CCN(C)CCN(C)Cc2ccc(OC)cc2)cc1`, the T/C runs as follows: (dose: 3.12 mg/kg/injection, schedule: Q01DX009 (ip), vehicle: water) 92 % of control; (dose: 6.25 mg/kg/injection, schedule: Q01DX009 (ip), vehicle: saline) 102 % of control; (dose: 6.25 mg/kg/injection, schedule: Q01DX009 (ip), vehicle: water) 108 % of control; (dose: 12.5 mg/kg/injection, schedule: Q01DX009 (ip), vehicle: saline) 103 % of control; (dose: 12.5 mg/kg/injection, schedule: Q01DX009 (ip), vehicle: water) 99 % of control; (dose: 25.0 mg/kg/injection, schedule: Q01DX009 (ip), vehicle: saline) 93 % of control. Further, the T/C was 100 % of control (dose: 25.0 mg/kg/injection, schedule: Q01DX009 (ip), vehicle: water); 90 % of control (dose: 25.0 mg/kg/injection, schedule: Q04DX003 (ip), vehicle: water); 86 % of control (dose: 50.0 mg/kg/injection, schedule: Q01DX009 (ip), vehicle: saline); 106 % of control (dose: 50.0 mg/kg/injection, schedule: Q01DX009 (ip), vehicle: water); 99 % of control (dose: 50.0 mg/kg/injection, schedule: Q04DX003 (ip), vehicle: water); 96 % of control (dose: 100.0 mg/kg/injection, schedule: Q04DX003 (ip), vehicle: water).

With `NC(=S)NCCO`, the T/C runs as follows: (dose: 100.0 mg/kg/injection, schedule: Q01DX001 (ip), vehicle: saline) 104 % of control; (dose: 200.0 mg/kg/injection, schedule: Q01DX001 (ip), vehicle: saline) 95 % of control; (dose: 400.0 mg/kg/injection, schedule: Q01DX001 (ip), vehicle: saline) 100 % of control.

For `COc1cc([C@@H]2c3cc4c(cc3[C@@H](OC3OC5CO[C@@H](c6cccs6)OC5C(O)C3O)[C@H]3COC(=O)[C@H]23)OCO4)cc(OC)c1O` (stereo partly specified), the T/C runs as follows: (dose: 0.25 mg/kg/injection, schedule: Q01DX010 (ip), vehicle: saline) 166 % of control and 175 % of control; (dose: 0.5 mg/kg/injection, schedule: Q01DX010 (ip), vehicle: saline) 179 % of control and 183 % of control; (dose: 1.0 mg/kg/injection, schedule: Q01DX010 (ip), vehicle: saline) 166 % of control and 216 % of control; (dose: 2.0 mg/kg/injection, schedule: Q01DX010 (ip), vehicle: saline) 233 % of control and 250 % of control; (dose: 2.88 mg/kg/injection, schedule: Q04DX003 (ip), vehicle: saline) 300 % of control; (dose: 3.24 mg/kg/injection, schedule: Q04DX003 (ip), vehicle: clinical formulation) 327 % of control. For the same compound, the T/C is, setting by setting: (dose: 4.0 mg/kg/injection, schedule: Q01DX010 (ip), vehicle: saline) 100 % of control; (dose: 4.8 mg/kg/injection, schedule: Q04DX003 (ip), vehicle: saline) 596 % of control; (dose: 5.4 mg/kg/injection, schedule: Q04DX003 (ip), vehicle: clinical formulation) 557 % of control; (dose: 8.0 mg/kg/injection, schedule: Q04DX003 (ip), vehicle: saline) 378 % of control; (dose: 9.0 mg/kg/injection, schedule: Q04DX003 (ip), vehicle: clinical formulation) 557 % of control; (dose: 13.33 mg/kg/injection, schedule: Q04DX003 (ip), vehicle: saline) 240 % of control. Besides, the T/C (dose: 15.0 mg/kg/injection, schedule: Q04DX003 (ip), vehicle: clinical formulation) is 558 % of control.

Take `COc1cc2c(c(OC)c1OC)-c1cc3c(cc1C(=O)[C@@H]1COC(=O)[C@@H]21)OCO3`: the T/C (dose: 1.3 mg/kg/injection, schedule: Q01DX009 (ip), vehicle: saline) was 109 % of control; the T/C (dose: 2.0 mg/kg/injection, schedule: Q01DX009 (ip), vehicle: saline) is 95 % of control; the T/C (dose: 3.0 mg/kg/injection, schedule: Q01DX009 (ip), vehicle: saline) is 95 % of control; the T/C (dose: 5.3 mg/kg/injection, schedule: Q01DX009 (ip), vehicle: saline with Tween-80) is 100 % of control; the T/C (dose: 8.0 mg/kg/injection, schedule: Q01DX009 (ip), vehicle: saline with Tween-80) was 100 % of control; the T/C (dose: 12.0 mg/kg/injection, schedule: Q01DX009 (ip), vehicle: saline with Tween-80) is 95 % of control. Besides, the T/C is 105 % of control (dose: 21.4 mg/kg/injection, schedule: Q01DX009 (ip), vehicle: saline); 110 % of control (dose: 32.0 mg/kg/injection, schedule: Q01DX009 (ip), vehicle: saline); 110 % of control (dose: 48.0 mg/kg/injection, schedule: Q01DX009 (ip), vehicle: saline).

Regarding `CCC(CC)N(C)C(C)(C)CO`, the T/C is 100 % of control under setting [1]; 91 % of control under setting [2]; 104 % of control (dose: 50.0 mg/kg/injection, schedule: Q04DX003 (ip), vehicle: saline sonified); 108 % of control under setting [3]; 104 % of control (dose: 100.0 mg/kg/injection, schedule: Q04DX003 (ip), vehicle: saline sonified); 113 % of control (dose: 200.0 mg/kg/injection, schedule: Q04DX003 (ip), vehicle: saline sonified).

In the case of `Cc1cc2nc(Cc3nc4cc(C)c(C)cc4[nH]3)[nH]c2cc1C`, the T/C under setting [4] was 95 % of control, the T/C under setting [5] was 90 % of control and the T/C under setting [6] was 95 % of control.

On to `c1cc[c]([Pb]([c]2ccccc2)([c]2ccccc2)[n]2c3ccccc3c3ccccc32)cc1`, for which the T/C was 90 % of control (dose: 0.19 mg/kg/injection, schedule: Q01DX009 (ip), vehicle: saline); 100 % of control (dose: 0.39 mg/kg/injection, schedule: Q01DX009 (ip), vehicle: saline); 95 % of control (dose: 0.78 mg/kg/injection, schedule: Q01DX009 (ip), vehicle: saline); 100 % of control (dose: 1.56 mg/kg/injection, schedule: Q01DX009 (ip), vehicle: saline); 112 % of control (dose: 3.0 mg/kg/injection, schedule: Q04DX003 (ip), vehicle: saline); 100 % of control (dose: 4.12 mg/kg/injection, schedule: Q01DX009 (ip), vehicle: saline). Besides, the T/C is, setting by setting: (dose: 6.0 mg/kg/injection, schedule: Q04DX003 (ip), vehicle: saline) 116 % of control; (dose: 12.0 mg/kg/injection, schedule: Q04DX003 (ip), vehicle: saline) 104 % of control.

`CC(SC(C)c1ccccc1)c1ccccc1` (stereo unspecified): the T/C reads like this: under setting [4], 108 % of control; under setting [5], 108 % of control; under setting [6], 116 % of control.

Consider `CCCCNc1nc(N)nc(Nc2ccc(Br)cc2)c1N=O`, for which the T/C reads like this: under setting [1], 90 % of control; under setting [2], 90 % of control; (dose: 100.0 mg/kg/injection, schedule: Q01DX001 (ip), vehicle: Klucel (hydroxypropylcellulose) (HPC)) 100 % of control; under setting [3], 90 % of control and 91 % of control; (dose: 100.0 mg/kg/injection, schedule: Q04DX003 (ip), vehicle: Klucel (hydroxypropylcellulose) (HPC)) 120 % of control; under setting [4], 86 % of control. In addition, the T/C (dose: 132.0 mg/kg/injection, schedule: Q04DX003 (ip), vehicle: Klucel (hydroxypropylcellulose) (HPC)) is 100 % of control and 109 % of control; the T/C (dose: 200.0 mg/kg/injection, schedule: Q01DX001 (ip), vehicle: Klucel (hydroxypropylcellulose) (HPC)) is 91 % of control; the T/C (dose: 200.0 mg/kg/injection, schedule: Q04DX003 (ip), vehicle: Klucel (hydroxypropylcellulose) (HPC)) was 104 % of control; the T/C under setting [5] was 104 % of control; the T/C (dose: 300.0 mg/kg/injection, schedule: Q04DX003 (ip), vehicle: Klucel (hydroxypropylcellulose) (HPC)) was 90 % of control and 113 % of control; the T/C (dose: 400.0 mg/kg/injection, schedule: Q01DX001 (ip), vehicle: Klucel (hydroxypropylcellulose) (HPC)) was 91 % of control. Under setting [6], the T/C was 100 % of control.

On to `COCC(O)CN1CCN(c2ccccc2C)CC1` (stereo unspecified), for which the T/C is 87 % of control under setting [1], 95 % of control under setting [2] and 91 % of control under setting [3].

In the case of `C(=C\CN(Cc1ccccc1)Cc1ccccc1)/CN(Cc1ccccc1)Cc1ccccc1`, the T/C runs as follows: (dose: 50.0 mg/kg/injection, schedule: Q01DX009 (ip), vehicle: Klucel (hydroxypropylcellulose) (HPC)) 104 % of control; (dose: 100.0 mg/kg/injection, schedule: Q01DX009 (ip), vehicle: Klucel (hydroxypropylcellulose) (HPC)) 104 % of control; (dose: 200.0 mg/kg/injection, schedule: Q01DX009 (ip), vehicle: Klucel (hydroxypropylcellulose) (HPC)) 95 % of control.
